Measurements from patent US20180282331A1, “7-Oxo -6-(sulfooxy)- 1,6-diazabicyclo [3.2.1] octane containing compounds and their use in treatment of bacterial infections (changed by PCT to: 7-OXO -6-(SULFOOXY)- 1,6-DIAZABICYCLO [3.2.1] OCTANE CONTAINING COMPOUNDS AND THEIR USE IN TREATMENT OF BACTERIAL INFECTIONS” (WOCKHARDT LIMITED, priority 2015, published 2018).
Like-named read-outs stand apart in the source and are kept apart here.

How the values were obtained:
Test in all cases: MIC, agar dilution (MHA), compound alone
Assay type in all cases: cell-based
[1] = test system: E. coli 7 MP
Procedure: (§1) The biological activity of representative compounds according to the invention against various bacterial strains was investigated. The Minimum Inhibitory Concentration (MIC) determination for the combinations was carried out in Muller Hinton Agar (MHA) (BD, USA) according to Clinical and Laboratory Standards Institute (CLSI) recommendations, (Clinical and Laboratory Standards Institute (CLSI), Performance Standards for Antimicrobial Susceptibility Testing, 20th Informational Supplement, M 100-S20, Volume 30, No. 1, 2010). In short, the test strains were adjusted to deliver about 10^4 CFU per spot with a multipoint inoculator (Applied Quality Services, UK). The plates were poured with MHA containing doubling concentration range of representative compounds according to present invention. The plates were inoculated and were incubated at 35° C. for 18 hours. […] The Table 5 depicts the antibacterial activity profile of compounds according to present invention against various multidrug resistant bacterial strains.

[2] = test system: E. coli M 50
Procedure: as §1

[3] = test system: E. coli NCTC 13352
Procedure: as §1

[4] = test system: E. coli NCTC 13353
Procedure: as §1

[5] = test system: K. pneumoniae ATCC 700603
Procedure: as §1

[6] = test system: K. pneumoniae H521
Procedure: as §1

[7] = test system: K. pneumoniae H525
Procedure: as §1

[8] = Escherichia coli, E. coli 7 MP, compound alone, MHA, 35° C., 18 hours, read-out: MIC
[9] = Escherichia coli, M50, E. coli M 50, compound alone, MHA, 35° C., 18 hours, read-out: MIC
[10] = Escherichia coli, NCTC13352, E. coli NCTC 13352, compound alone, MHA, 35° C., 18 hours, read-out: MIC
[11] = Escherichia coli, NCTC13353, E. coli NCTC 13353, compound alone, MHA, 35° C., 18 hours, read-out: MIC
[12] = Klebsiella pneumoniae, ATCC700603, K. pneumoniae ATCC 700603, compound alone, MHA, 35° C., 18 hours, read-out: MIC
[13] = Klebsiella pneumoniae, K. pneumoniae H521, compound alone, MHA, 35° C., 18 hours, read-out: MIC
[14] = Klebsiella pneumoniae, K. pneumoniae H525, compound alone, MHA, 35° C., 18 hours, read-out: MIC
[15] = E. coli 7 MP, compound alone, MHA, 35° C., 18 hours
[16] = E. coli M 50, compound alone, MHA, 35° C., 18 hours
[17] = E. coli NCTC 13352, compound alone, MHA, 35° C., 18 hours
[18] = E. coli NCTC 13353, compound alone, MHA, 35° C., 18 hours
[19] = K. pneumoniae ATCC 700603, compound alone, MHA, 35° C., 18 hours
[20] = K. pneumoniae H521, compound alone, MHA, 35° C., 18 hours
[21] = K. pneumoniae H525, compound alone, MHA, 35° C., 18 hours

Row | SMILES | MIC [1, 8] [µg/mL] | MIC [2, 9] [µg/mL] | MIC [3, 10] [µg/mL] | MIC [4, 11] [µg/mL] | MIC [5, 12] [µg/mL] | MIC [6, 13] [µg/mL] | MIC [7, 14] [µg/mL] | also measured
1 | Cc1nnnn1CCONC(=O)[C@@H]1CC[C@@H]2CN1C(=O)N2OS(=O)(=O)[O-].[Na+] [Example 53] | 32 | > 32 | 8 | 4 | > 32 | 16 | 16 | –
2 | O=C(Cn1ccnc1)NNC(=O)[C@@H]1CC[C@@H]2CN1C(=O)N2OS(=O)(=O)O.[Na] [Example 2, Sodium salt of (2S,5R)-N′-(1H-imidazol-1-ylacetyl)-7-oxo-6-(sulfooxy)-1,6-diazabicyclo[3.2.1]octane-2-carbohydrazide] | – | – | – | – | – | – | – | MIC [1, 15]: 1 µg/mL; MIC [2, 16]: 0.5 µg/mL; MIC [3, 17]: 0.5 µg/mL; MIC [4, 18]: 0.25 µg/mL; MIC [5, 19]: >32 µg/mL; MIC [6, 20]: 1 µg/mL; MIC [7, 21]: 1 µg/mL
3 | O=C(NOCCn1nnc(CCO)n1)[C@@H]1CC[C@@H]2CN1C(=O)N2OS(=O)(=O)[O-].[Na+] [Example 55] | > 32 | 16 | 32 | 16 | > 32 | > 32 | > 32 | –
4 | C[C@H](N)C(=O)OCc1nccn1CC(=O)NNC(=O)[C@@H]1CC[C@@H]2CN1C(=O)N2OS(=O)(=O)O [Example 35] | 4 | 1 | 1 | 1 | > 32 | 2 | 2 | –
5 | NCc1nnn(CCONC(=O)[C@@H]2CC[C@@H]3CN2C(=O)N3OS(=O)(=O)O)n1 [Example 44, (2S,5R)-N-{2-[5-(aminomethyl)-2H-tetrazol-2-yl]ethoxy}-7-oxo-6-(sulfooxy)-1,6-diazabicyclo[3.2.1]octane-2-carboxamide] | > 32 | > 32 | > 32 | > 32 | > 32 | > 32 | > 32 | –
6 | NCCc1nnn(CCONC(=O)[C@@H]2CC[C@@H]3CN2C(=O)N3OS(=O)(=O)O)n1 [Example 46] | 32 | 4 | 8 | 4 | > 32 | 4 | 4 | –
7 | Nc1ccn(CC(=O)NNC(=O)[C@@H]2CC[C@@H]3CN2C(=O)N3OS(=O)(=O)[O-])c(=O)n1.[Na+] [Example 37] | – | – | – | – | – | – | – | MIC ([1]; Escherichia coli, 7MP, 18 h): 4 µg/mL; MIC ([2]; Escherichia coli, M50, 18 h): 1 µg/mL; MIC ([3]; Escherichia coli, NCTC13352, 18 h): 2 µg/mL; MIC ([4]; Escherichia coli, NCTC13353, 18 h): 1 µg/mL; MIC ([5]; Klebsiella pneumoniae, ATCC700603, 18 h): > 32 µg/mL; MIC ([6]; Klebsiella pneumoniae, H521, 18 h): 4 µg/mL; MIC ([7]; Klebsiella pneumoniae, H525, 18 h): 4 µg/mL
8 | O=C(Cn1cccn1)NNC(=O)[C@@H]1CC[C@@H]2CN1C(=O)N2OS(=O)(=O)[O-].[Na+] [Example 11] | 4 | 1 | 1 | 1 | > 32 | 32 | > 32 | –
9 | O=C(NOCCn1ccnn1)[C@@H]1CC[C@@H]2CN1C(=O)N2OS(=O)(=O)O [Example 47] | 32 | 8 | 8 | 8 | > 32 | > 32 | > 32 | –
10 | O=C(Cn1nnnc1CCO)NNC(=O)[C@@H]1CC[C@@H]2CN1C(=O)N2OS(=O)(=O)O.[Na] [Example 38, Sodium salt of (2S,5R)-N′-{[5-(2-hydroxyethyl)-1H-tetrazol-1-yl]acetyl}-7-oxo-6-(sulfooxy)-1,6-diazabicyclo[3.2.1]octane-2-carbohydrazide] | – | – | – | – | – | – | – | MIC [1, 15]: 1 µg/mL; MIC [2, 16]: 0.25 µg/mL; MIC [3, 17]: 0.25 µg/mL; MIC [4, 18]: 0.25 µg/mL; MIC [5, 19]: >32 µg/mL; MIC [6, 20]: 0.5 µg/mL; MIC [7, 21]: 0.5 µg/mL
11 | Nc1ncn(CC(=O)NNC(=O)[C@@H]2CC[C@@H]3CN2C(=O)N3OS(=O)(=O)O)n1 [Example 27] | 2 | 1 | 1 | 1 | > 32 | 2 | 2 | –

The remaining compounds from weak to strong by MIC [1, 8], led by results:

Row | MIC [1, 8] [µg/mL] | MIC [2, 9] [µg/mL] | MIC [3, 10] [µg/mL] | MIC [4, 11] [µg/mL] | MIC [5, 12] [µg/mL] | MIC [6, 13] [µg/mL] | MIC [7, 14] [µg/mL] | SMILES | also measured
12 | 2 | 0.5 | 0.5 | 0.5 | > 32 | 1 | 1 | O=C(Cn1cncn1)NNC(=O)[C@@H]1CC[C@@H]2CN1C(=O)N2OS(=O)(=O)[O-].[Na+] [Example 8] | –
13 | 1 | 0.5 | 0.5 | 0.5 | > 32 | 2 | 2 | C[C@@H](C(=O)NNC(=O)[C@@H]1CC[C@@H]2CN1C(=O)N2OS(=O)(=O)[O-])n1ccnc1.[Na+] [Example 20] | –
14 | 1 | 0.5 | 0.5 | 0.5 | > 32 | 1 | 1 | NCCCc1nnnn1CC(=O)NNC(=O)[C@@H]1CC[C@@H]2CN1C(=O)N2OS(=O)(=O)O [Example 31] | –
15 | 1 | 0.5 | 1 | 0.5 | > 32 | 4 | 0.5 | NCCCCc1nnnn1CC(=O)NNC(=O)[C@@H]1CC[C@@H]2CN1C(=O)N2OS(=O)(=O)O [Example 33] | –
16 | 1 | 0.25 | 0.5 | 0.25 | > 32 | 4 | 1 | Cc1nnnn1CC(=O)NNC(=O)[C@@H]1CC[C@@H]2CN1C(=O)N2OS(=O)(=O)[O-].[Na+] [Example 9] | –
17 | 1 | 0.5 | 0.5 | 0.5 | > 32 | 1 | 1 | NCc1nnn(CC(=O)NNC(=O)[C@@H]2CC[C@@H]3CN2C(=O)N3OS(=O)(=O)O)n1 [Example 26] | –
18 | 1 | 0.5 | 0.5 | 0.25 | > 32 | 0.5 | 0.5 | NCCCCc1nnn(CC(=O)NNC(=O)[C@@H]2CC[C@@H]3CN2C(=O)N3OS(=O)(=O)O)n1 [Example 32] | –
19 | 1 | 0.5 | 0.5 | 0.5 | > 32 | 2 | 2 | NC(=O)Cc1nnnn1CC(=O)NNC(=O)[C@@H]1CC[C@@H]2CN1C(=O)N2OS(=O)(=O)[O-].[Na+] [Example 15] | –
